Molecules are shown by their SMILES.

The record followed here is patent US4192871A, “Chemical compounds” (Glaxo Laboratories Limited, priority 1976, dated 1980).

Series [1] is described as follows: dissolution of the 11β-aminoester salts in aqueous acid (Table 5 and Examples 101, 225-229). Type of series: physicochemical. Here is the method: (§1) A solution of the above free base (492 mg; 1 mmole) in ethanol (10 ml) was treated with a solution (10 ml) of M/10 citric acid in ethanol water (9:1) and the mixture evaporated in vacuo at low temperature to afford a froth.
(§2) Table 5 summarises the properties and preparation of salts of the invention by one of the following methods:
(§3) A. The 11β-aminoester (1 part) was added to a solution of the acid (1 molar part) in water and the mixture stirred or shaken until a clear solution was obtained. The solution was made up with water to the weight indicated, filtered through a membrane and the pH determined.
(§4) B. The 11β-aminoester (1 part) was added to a solution of the acid (1 molar part) in water and the mixture stirred or shaken. As free base remained undissolved, further acid was added and the mixture agitated again. The solution was made up with water to the weight indicated and any material which then remained undissolved was collected in a weighed funnel and the weight of free base dissolved calculated and the pH of the solution measured.
(§5) C. A mixture of the 11β-aminoester (1 part), a 0.1 M solution of the acid (1 molar part) and ethanol was evaporated in vacuo and dried to constant weight. The residue was dissolved in a little water and any material which then remained undissolved collected in a weighed funnel and the weight of free base dissolved calculated. The solution was made up with water to the weight indicated and its pH measured.
(§6) D. The 11β-aminoester (1 part) was added to a solution of the acid (1 molar part) in water and the mixture stirred or shaken. The solution was made up with water to the weight indicated. The material remaining undissolved was collected in a weighed funnel and the weight of free base dissolved calculated and the pH of the solution measured.
(§7) E. As in method C except that further acid was added to the residue after addition of the small amount of water.
The solid citric acid used was as its monohydrate.
(§8) Sodium iodide (0.250 g) and diethylamine (0.5 ml) were added to a solution of 11β-chloroacetoxy-2β-ethoxy-3α-hydroxy-D-homo-5α-pregnan-20-one (0.250 g) in acetone (10 ml) and the mixture was left at room temperature for 3 days during which time a white solid precipated. Water was added and the yellow solution was concentrated in vacuo whereupon crystallisation occurred. The needles were filtered off and washed well with acetone/water yielding the title compound (0.201 g), m.p. 160°-73°, [α]D +60.8°. The above base (0.101 g) was stirred with citric acid monohydrate (0.042 g) in water (9.5 ml) for 21 hours. The solution was made up to 10.1 g by weight. The solid remaining out of solution was filtered off, dried and weighed. The solution was passed through a millipore filter giving an aqueous solution of the title compound, concentration 9.75 mg/ml, pH 3.66.
The above base (0.096 g) was stirred in a solution of citric acid monohydrate (0.038 g) in water (8.5 ml) for 20 hours. A large proportion of the steroid remained out of solution. More citric acid (0.038 g) was added and the mixture stirred for a further 6 hours. The solution was made up to 9.6 g by weight and the solid remaining out of solution was filtered off, dried and weighed. The solution was passed through a millipore filter giving an aqueous solution of the title compound, concentration 9.5 mg/ml, pH 2.85.
To a solution of citric acid monohydrate (52.5 mg) in water (2 ml) was added the above free base (115 mg). More water (8 ml) was added and the mixture was stirred for 72 hrs. A small amount of steroid remained out of solution and more citric acid (52.5 mg) was added. Within 5 mins. a clear solution was obtained which was made up to 11.5 g with water and filtered through a millipore filter yielding an aqueous solution of the title citrate, concentration 10 mg/ml, pH 3.0.
The above free base (112 mg) was added to a solution of citric acid monohydrate (52.5 mg) in water (2 ml). More water (8 ml) was added and the mixture was swirled from time to time. […]

A short description of series [2]: pH of the salt solutions. In kind it is physicochemical. To be noted: aqueous solution of the salt, Table 5. As for the experimental part:
as §1, §2, §3, §4, §5, §6, §7
11β-N,N-Diethylaminoacetoxy-2β-ethoxy-3α-hydroxy-5α-pregnan-20-one (1.45 g) was agitated with citric acid monohydrate (621 mg) in 0.9% w/v sodium chloride solution (steriflex^(R)) (130 ml.) at 20° for 16.5 hours. The resulting solution was stirred at 21° and N/5 sodium hydroxide solution in steriflex^(R) (10.5 ml) was added dropwise during 30 minutes, raising the pH from 3.63 to 4.52. The solution was diluted to 162.5 g so that the concentration of steroid was 9 mg/ml. The solution of the citrate was filtered through a membrane and finally filtered into 8 sterile ampoules.
11β-(N-Butyl-N-ethylaminoacetoxy)-3α-hydroxy-5α-pregnan-20-one (1.80 g) was agitated with citric acid monohydrate (793 mg) in 0.9% w/v sodium chloride solution (steriflex^(R)) (160 ml) at 20° for 19.5 hours. The resulting solution was slightly cloudy. This solution was stirred at 21° and N/5 sodium hydroxide solution in steriflex^(R) (5.8 ml) was added dropwise during 15 minutes, raising the pH from 3.62 to 4.00. The solution was diluted to 201.2 g so that the concentration of steroid was 9 mg/ml. The cloudiness was removed by filtration through a membrane and the clear solution of the citrate was filtered into 8 sterile ampoules.
as §8, with “3.66. […]” for “3.66.”

Where [3] appears, read: method A: clear solution, 1 molar part acid, made up with water to WT. of solution 10 g, except Ex. 121 and 150: 12, 123: 12.3, 124: 7.5, 129: 10.3, 135 and 139: 8.95, 164: 10.35, 170: 10.4, 181: 10.04, 187: 9.5, 210: 10.2, 221: 15 g.
[4] abbreviates: method D: 1 molar part acid, undissolved material weighed, WT. of solution 10 g, except Ex. 136: 8.95, 140: 9.52, 165 and 167: 10.1, 190 and 198: 9.8, 191: 8.9, 194: 6.6, 204: 10.09, 219: 10.6 g.
[5] abbreviates: method B: further acid added, undissolved material weighed, WT. of solution 10 g, except Ex. 130 and 141: 9.2, 142: 9.23, 143, 144, 189 and 199: 9.8, 149: 10.6, 153: 7.9, 162 and 188: 9.5, 163: 68, 166: 10.4, 168: 10.7, 169: 10.9, 183: 8.05, 184 and 201: 9.83, 185: 7.1, 186: 9.3, 192: 10.07, 193: 6.4, 195: 6.8, 196: 7, 197: 7.2, 200: 10.1, 206: 15 g.
The mark [6] stands for this setting: method C: ethanol evaporated, residue in water, undissolved material weighed, WT. of solution Ex. 118: 10, 120: 10.4, 148: 9.54, 152: 5.6, 154: 9.1, 155: 8.77, 156: 9.06, 157: 9.5, 158: 9.38, 159: 9.17, 179: 9.65, 180: 11.7, 182: 4.9, 202: 12.05, 213: 12, 214: 11.5, 215: 11.1, 216: 11.6, 217: 12.1 g.

Take `CC(=O)[C@H]1CC[C@H]2[C@@H]3CC[C@H]4C[C@](C)(O)CC[C@]4(C)[C@H]3[C@@H](OC(=O)CN3CCCCC3)C[C@]12C` [Example 133]: the Dissolved aminoester in series [1] (setting [3]) amounted to 100 mg. Further, the pH in series [2] was 3.7.
On to `CC(=O)[C@H]1CC[C@H]2[C@@H]3CC[C@H]4C[C@](C)(O)CC[C@]4(C)[C@H]3[C@@H](OC(=O)CN3CCC(C)CC3)C[C@]12C` [Example 134], for which the Dissolved aminoester in series [1] (setting [4]) was determined as 84 mg. In series [2], the pH came to 3.2.
For the molecule `CC(=O)[C@H]1CC[C@H]2[C@@H]3CC[C@H]4C[C@H](O)CC[C@]4(C)[C@H]3[C@@H](OC(=O)CNCC(C)C)C[C@]12C` [Example 135], the Dissolved aminoester in series [1] (setting [3]) is 80.5 mg. Moreover, in series [2], the pH is reported as 3.27.
In the case of `CCCCNCC(=O)O[C@H]1C[C@]2(C)[C@@H](C(C)=O)CC[C@H]2[C@@H]2CC[C@H]3C[C@H](O)CC[C@]3(C)[C@H]21` [Example 136], the Dissolved aminoester in series [1] (setting [4]) was 83.5 mg. Besides, in series [2], the pH is recorded as 3.60.
With `CC(=O)[C@H]1CC[C@H]2[C@@H]3CC[C@H]4C[C@H](O)CC[C@]4(C)[C@H]3[C@@H](OC(=O)CNC3CCCC3)C[C@]12C` [Example 137], the Dissolved aminoester in series [1] (setting [3]) is given as 100 mg. The pH in series [2] came to 3.62.
For `CC(=O)[C@H]1CC[C@H]2[C@@H]3CC[C@H]4C[C@H](O)CC[C@]4(C)[C@H]3[C@@H](OC(=O)CNC3CCCCC3)C[C@]12C` [Example 138], in that order: 100 mg and 3.10.
For `CCC(C)NCC(=O)O[C@H]1C[C@]2(C)[C@@H](C(C)=O)CC[C@H]2[C@@H]2CC[C@H]3C[C@H](O)CC[C@]3(C)[C@H]21` (stereo partly shown) [Example 139], in that order: 89.5 mg and 3.76.
`CC(=O)[C@H]1CC[C@H]2[C@@H]3CC[C@H]4C[C@H](O)CC[C@]4(C)[C@H]3[C@@H](OC(=O)CNC(C)CC(C)C)C[C@]12C` (stereo partly shown) [Example 140]: the Dissolved aminoester in series [1] (setting [4]) is 80.7 mg. Besides, the pH in series [2] came out at 3.59.
In the case of `CCCC(C)NCC(=O)O[C@H]1C[C@]2(C)[C@@H](C(C)=O)CC[C@H]2[C@@H]2CC[C@H]3C[C@H](O)CC[C@]3(C)[C@H]21` (stereo partly shown) [Example 141], the Dissolved aminoester in series [1] (setting [5]) is reported as 77.3 mg. In addition, the pH in series [2] is recorded as 2.89.
For `CC(=O)[C@H]1CC[C@H]2[C@@H]3CC[C@H]4C[C@H](O)CC[C@]4(C)[C@H]3[C@@H](OC(=O)CNCC(C)(C)C)C[C@]12C` [Example 142], in that order: 92.3 mg and 3.12.
On the same counts, the results for `CC(=O)[C@H]1CC[C@H]2[C@@H]3CC[C@H]4C[C@H](O)CC[C@]4(C)[C@H]3[C@@H](OC(=O)CNC(C)CCC(C)C)C[C@]12C` (stereo partly shown) [Example 143] are 86 mg and 2.85.
For the molecule `CC(=O)[C@H]1CC[C@H]2[C@@H]3CC[C@H]4C[C@H](O)CC[C@]4(C)[C@H]3[C@@H](OC(=O)CNC(C(C)C)C(C)C)C[C@]12C` [Example 144], the Dissolved aminoester in series [1] (setting [5]) amounted to 61 mg. In addition, the pH in series [2] is given as 2.79.
In the case of `CC(=O)[C@H]1CC[C@H]2[C@@H]3CC[C@H]4C[C@H](O)CC[C@]4(C)[C@H]3[C@@H](OC(=O)CNC3CC3)C[C@]12C` [Example 145], the Dissolved aminoester in series [1] (setting [4]) was found to be 93 mg. In addition, in series [2], the pH was determined as 2.93.
`CC(=O)[C@H]1CC[C@H]2[C@@H]3CC[C@H]4C[C@H](O)CC[C@]4(C)[C@H]3[C@@H](OC(=O)CNC34CC5CC(CC(C5)C3)C4)C[C@]12C` [Example 146]: the Dissolved aminoester in series [1] (setting [5]) was 86 mg. The pH in series [2] is recorded as 2.92.
With `CCC(C)N(CC(=O)O[C@H]1C[C@]2(C)[C@@H](C(C)=O)CC[C@H]2[C@@H]2CC[C@H]3C[C@H](O)CC[C@]3(C)[C@H]21)C(C)CC` (stereo partly shown) [Example 147], the Dissolved aminoester in series [1] (setting [5]) is reported as 85 mg. Besides, the pH in series [2] is reported as 2.03.
Turning to `CC(=O)[C@H]1CC[C@H]2[C@@H]3CC[C@H]4C[C@H](O)CC[C@]4(C)[C@H]3[C@@H](OC(=O)CN3CCCCC3C)C[C@]12C` (stereo partly shown) [Example 148], the Dissolved aminoester in series [1] (setting [6]) was 95.4 mg. The pH in series [2] worked out at 3.55.
As for `CCCO[C@H]1C[C@@]2(C)[C@@H](CC[C@@H]3[C@@H]2[C@@H](OC(=O)CN2CCC(C)CC2)C[C@]2(C)[C@@H](C(C)=O)CC[C@@H]32)C[C@@H]1O` [Example 149], the Dissolved aminoester in series [1] (setting [5]) came out at 106 mg. The pH in series [2] amounted to 2.9.
`CCCCN(CC)CC(=O)O[C@H]1C[C@]2(C)[C@@H](C(C)=O)CC[C@H]2[C@@H]2CC[C@H]3C[C@H](O)[C@@H](OCC)C[C@]3(C)[C@H]21` [Example 150]: the Dissolved aminoester in series [1] (setting [3]) worked out at 120 mg. Further, the pH in series [2] is given as 3.35.
For `CC(=O)[C@H]1CC[C@H]2[C@@H]3CC[C@H]4C[C@H](O)CC[C@]4(C)[C@H]3[C@@H](OC(=O)CN(C)C)C[C@]12C` [Example 151], the Dissolved aminoester in series [1] (setting [3]) came out at 100 mg. Also, in series [2], the pH is on record as 3.6.
Regarding `CCN(CC)CC(=O)O[C@H]1C[C@]2(C)[C@@H](C(C)=O)CC[C@H]2[C@@H]2CC[C@H]3C[C@H](O)CC[C@]3(C)[C@H]21` [Example 152], in series [1] (setting [6]), the Dissolved aminoester was 55.95 mg. Also, the pH in series [2] worked out at 3.6.
